Measured values from patent publication US20120308682A1, “RUMINANT FEED, PRODUCTS, AND METHODS COMPRISING BENEFICIAL FATTY ACIDS” (MONSANTO TECHNOLOGY LLC, priority 2009, published 2012).

Test system: Holstein cows
Assay: Milk fatty acid composition after abomasal or ruminal infusion of SDA-enhanced soybean oil in dairy cows (gas chromatography)
Format: in vivo
Settings: of the SDA present in the abomasally infused oil; range=36.8 to 41.9%
Excerpt: In this Example, transgenic soybean oil containing SDA was either infused directly in the rumen or directly into the abomasum bypassing the rumen to examine the potential of using SDA-enhanced soybean oil to increase the milk fat content of omega-3 fatty acids in dairy cows and to determine the efficiency of SDA uptake from the digestive tract and transfer to milk fat.
Three multiparous, pregnant, rumen-fistulated Holstein cows averaging 267 days in lactation were assigned randomly to a 3×3 Latin square design. Treatments were: 1) control (no oil infusion); 2) abomasal infusion of SDA-enhanced SBO (SDA-abo) and 3) ruminal infusion of SDA-enhanced SBO (SDA-rum). Oil infusions (210 g/d) provided 57 g/d of stearidonic acid and infusion periods were 7 d with a 7 d washout between periods. […]
Cows were milked twice a day with two milk samples obtained at each milking. One milk sample was analyzed for major components (i.e., fat, protein, lactose) by infrared analysis. The second milk sample was analyzed for fatty acids with extraction, methylation and gas chromatographic analysis. Fatty acids were quantified using pure methyl ester standards and a butter oil reference standard was analyzed periodically to monitor column performance and correction factors for individual fatty acids. […]

CC/C=C\C/C=C\C/C=C\C/C=C\CCCCC(=O)O [SDA, stearidonic acid]
transfer efficiency of SDA to milk fat: 39.3%
